Here are results for 29 compounds from patent US11098040B2, “Compounds and methods of use” (Ferro Therapeutics, Inc., priority 2018, dated 2021).

Read-outs that look alike come from different tables or passages of the source. A value given as a limit tells only on which side of the number the result lay.

In series [1] the test system is 786-O. Description: Cell proliferation (Alamar Blue) assay, 786-O renal cell carcinoma, with/without ferrostatin. The class given is cell-based. The note with it: Homo sapiens. The method, then: (§1) Cell viability assay was performed to assess the potency of the compounds in human cancer cell lines 786-O (renal cell carcinoma) and SJSA-1 (osteosarcoma). Additional cell lines, such as those described above in Example 4 as well as various others, e.g., pancreatic cancer cell lines (Panc 02.13, BxPC-3, Panc 12, Panc 02.03, Panc 6.03, PSN-1, HPAC, and Capan-1) and prostate cancer cell lines (PC-3, DU145, 22Rv1, NCI-H660, BPH1, LNCaP, BM-1604, and MDA PCa 2b), were tested for select compounds as shown in Table 25.
(§2) Cells (SJSA-1, 786-O and A431) were seeded (5000 cells/100 μL/well) in 96-well tissue culture plate and incubated at 37° C./5% CO2 for 16-24 hours. The cells were then treated with compounds (25 μL of 5×). The compound concentrations were 10-0.0005 μM prepared in 3-fold serial dilutions with final DMSO concentration of 1%. The plates were then incubated for 24 h at 37° C./5% CO2 in a moist environment. Then Alamar Blue™ reagent (final concentration 1×-12.5 μL) was added to each well and incubated for 1.5 hours at 37° C./5% CO2. The plates were read on fluorescence reader at 540 nm excitation and 590 nm emission wavelengths. The IC50 values were subsequently determined using a sigmoidal dose-response curve (variable slope) in GraphPad Prism® 5 software.
(§3) Studies have shown that lipophilic antioxidants, such as ferrostatin, can rescue cells from GPX4 inhibition-induced ferroptosis. For instance, mesenchymal state GPX4-knockout cells can survive in the presence of ferrostatin, however, when the supply of ferrostatin is terminated, these cells undergo ferroptosis (see, e.g., Viswanathan et al., Nature 547:453-7, 2017). […] Accordingly, the ability of a molecule to induce ferroptotic cancer cell death, and that such ability is admonished by the addition of ferrostatin, is clear indication that the molecule is an GPX4 inhibitor.
In general terms: Alamar Blue is a resazurin reagent that responds to reducing activity.

The test system of series [2] is SJSA-1. Description: Cell proliferation (Alamar Blue) assay, SJSA-1 osteosarcoma, with/without ferrostatin. As to conditions: Homo sapiens. The class given is cell-based, human. The method, then: as §1, §2, §3
The test system of series [3] is KP4. The experiment in a line: Cell viability assay (CellTiter Glo), pancreatic ductal adenocarcinoma KP4. It counts as cell-based, human. As to conditions: Homo sapiens, KP-4, 96 h, pancreatic cancer cell line KP4, 96 hours, CellTiter Glo; read-out: IC50 μM KP4. The method, boiled down: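 Luminescent ATP readout (CellTiter Glo) after 96 h compound exposure, normalized to DMSO-treated cells as maximum. Compounds ran in duplicate, nine 3-fold steps from 30 μM down to 4.6 nM, final DMSO ≤0.25%; KP4 plated overnight at 1,000–10,000 cells/well. Outputs: IC50, relative IC50 or % top inhibition.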
A general note: ATP-based viability assays read luminescence as a measure of living cells.

Series [4] in a line: Whole blood stability, human. It counts as in vitro ADME. From the text:
(§4) The results of the assay on stability in blood and IC50 values for pancreatic cancer cell line KP4 are given below in Table 24.

Series [5] can be described thus: Whole blood stability, mouse. The class given is in vitro ADME.
Source text: as §4

[6] abbreviates: 786-0, Cell Line 786-O, read-out: IC50.
Where [7] appears, read: SJSA-1, Cell Line SJSA-1, read-out: IC50.
Where [8] appears, read: SJSA-1, 24 h, Alamar Blue, 24 h, 2 μM ferrostatin, read-out: SJSA-1 (IC50, μM) 2 μM Ferrostatin.
The mark [9] stands for this setting: SJSA-1, 24 h, Alamar Blue, 24 h, without ferrostatin, read-out: SJSA-1 (IC50, μM) Without Ferrostatin.
The mark [10] stands for this setting: 786-0, 24 h, Alamar Blue, 24 h, 2 μM ferrostatin, read-out: 786-O (IC50, μM) 2 μM Ferrostatin.
Where [11] appears, read: 786-0, 24 h, Alamar Blue, 24 h, without ferrostatin, read-out: 786-O (IC50, μM) Without Ferrostatin.

For orientation: IC50 means the concentration that inhibits the measured activity by half. In the case of `C[C@H]1Cc2c([nH]c3ccccc23)C(c2ccc(S(N)(=O)=O)cc2)N1C(=O)CCl` (stereo partly shown) [Compound 123], the IC50 in series [1] (setting [6]) is 2.4 µM.

`C[C@H]1Cc2c([nH]c3ccccc23)C(c2ccc(N3CCOCC3)nc2)N1C(=O)CCl` (stereo partly shown) [Compound 124]: the IC50 in series [1] (setting [6]) came to 0.245 µM.

As to `C[C@H]1Cc2c([nH]c3ccccc23)[C@H](c2ccc(S(=O)(=O)NC3CC3)cc2F)N1C(=O)CCl` (single isomer, unassigned) [Compound 217], the figures for the IC50 in series [2] (setting [7]) and in series [1] (setting [6]) were 0.028 µM and 0.022 µM, respectively.

Consider `C[C@H]1Cc2c([nH]c3ccccc23)[C@@H](c2ccc(S(=O)(=O)NC3CC3)cc2F)N1C(=O)CCl` (single isomer, unassigned) [Compound 161], for which the figures for the IC50 in series [2] (setting [7]) and in series [1] (setting [6]) were 4.3 µM and 2.8 µM, respectively.

Take `C[C@H]1Cc2c([nH]c3ccccc23)[C@H](c2cnn(C3CCOCC3)c2)N1C(=O)CCl` [Compound 158]: the IC50 in series [1] (setting [6]) came out at 0.591 µM.

`CCS(=O)(=O)N1CCN(c2ccc([C@H]3c4[nH]c5ccccc5c4C[C@H](C)N3C(=O)CCl)cc2)CC1` [Compound 209]: the IC50 in series [2] (setting [8]) is 8.29 µM; in series [2] (setting [9]), 0.019 µM; in series [1] (setting [10]), above 10 µM; in series [1] (setting [11]), 0.022 µM; in series [1] (setting [6]), 0.022 µM.

With `CC#CC(=O)N1[C@@H](c2ccc(N3CCOCC3)cc2)c2[nH]c3ccccc3c2C[C@@H]1C` [Compound 224], in series [2] (setting [7]), the IC50 was above 3 µM.

Consider `C#CC(=O)N1[C@@H](c2ccc(S(=O)(=O)NC3CC3)cc2F)c2[nH]c3ccccc3c2C[C@@H]1C` [Compound 174], for which the half-inhibitory concentration (IC50) in series [2] (setting [8]) amounted to 2.32 µM; in series [2] (setting [9]), 0.091 µM; in series [1] (setting [10]), 5.09 µM; in series [1] (setting [11]) it was 0.016 µM; in series [1] (setting [6]), 0.016 µM.

Regarding `COC[C@H]1Cc2c([nH]c3ccccc23)C(c2ccc(C(=O)NC3CC3)cc2F)N1C(=O)CCl` (stereo partly drawn) [Compound 162, 4-((3R)-2-(2-chloroacetyl)-3-(methoxymethyl)-2,3,4,9-tetrahydro-1H-pyrido[3,4-b]indol-1-yl)-N-cyclopropyl-3-fluorobenzamide], the half-inhibitory concentration (IC50) in series [2] (setting [7]) was determined as 0.085 µM; in series [1] (setting [6]), 0.06 µM.

As for `C[C@H]1Cc2c([nH]c3ccccc23)[C@H](c2ccc(S(=O)(=O)NC3CCN(C(=O)OC(C)(C)C)CC3)cc2)N1C(=O)CCl` [Compound 293, tert-butyl-4-((4-((1S,3S)-2-(2-chloroacetyl)-3-methyl-2,3,4,9-tetrahydro-1H-pyrido[3,4-b]indol-1-yl)phenyl)sulfonamido)piperidine-1-carboxylate], the IC50 worked out at 0.03 µM in series [2] (setting [7]) and 0.067 µM in series [1] (setting [6]).

`C=C(C(=O)N1[C@@H](c2ccc(N3CCOCC3)cc2)c2[nH]c3ccccc3c2C[C@@H]1C)C(F)(F)F` [Compound 175]: the IC50 in series [2] (setting [7]) and in series [1] (setting [6]) was above 10 µM throughout.

With `C#CC(=O)N1[C@@H](c2ccc(S(=O)(=O)NC3CC3)cc2F)c2[nH]c3ccc(F)cc3c2C[C@@H]1C` [Compound 153, N-cyclopropyl-3-fluoro-4-((1S,3S)-6-fluoro-3-methyl-2-propioloyl-2,3,4,9-tetrahydro-1H-pyrido[3,4-b]indol-1-yl)benzenesulfonamide], the IC50 in series [2] (setting [7]) was 0.015 µM; in series [1] (setting [6]), 0.009 µM.

`C#CC(=O)N1[C@@H](c2ccc(F)cc2)c2[nH]c3ccc(OC)cc3c2C[C@@H]1C` [Compound 282]: the IC50 in series [2] (setting [7]) came to 0.436 µM; in series [1] (setting [6]) it was 0.223 µM.

As for `C[C@H]1Cc2c([nH]c3ccccc23)[C@H](c2ccc(N3CCN(C)CC3)cc2)N1C(=O)CCl` [Example 104], in series [2] (setting [7]), the IC50 was 0.147 µM.

With `C[C@H]1Cc2c([nH]c3ccccc23)[C@H](c2ccc(N3CCOCC3)cc2)N1C(=O)CF` [Compound 227], the IC50 in series [2] (Cell Line SJSA-1, read-out: IC50) was above 3 µM.

`COc1ccc2[nH]c3c(c2c1)C[C@H](C)N(C(=O)CCl)[C@H]3c1ccc(F)cc1` [Compound 281]: the IC50 in series [2] (setting [7]) was determined as 0.261 µM; in series [1] (setting [6]), 0.206 µM.

As to `CC1CN(c2ccc([C@H]3c4[nH]c5ccccc5c4C[C@H](C)N3C(=O)CCl)cc2)CC(C)O1` (stereo partly shown) [Compound 212], the IC50 in series [2] (setting [8]) is 5.03 µM; in series [2] (setting [9]), 0.011 µM; in series [2] (setting [7]), 0.011 µM; in series [1] (setting [10]) it was 4.96 µM; in series [1] (setting [11]), 0.008 µM.

Turning to `C[C@H]1Cc2c([nH]c3ccccc23)[C@H](c2ccc(N3CCOCC3)nc2)N1C(=O)CCl` [Compound 220], in series [1] (setting [6]), the IC50 was determined as 0.098 µM.

For the compound `C#CCOc1ccc2[nH]c3c(c2c1)C[C@H](C(=O)OC)N(C(=O)CCl)[C@H]3c1ccc(C(=O)NC23CC4CC(CC(C4)C2)C3)cc1` [Compound 211], the IC50 in series [2] (setting [8]) is 5.92 µM; in series [2] (setting [9]), 0.011 µM; in series [1] (setting [10]) it was 3.94 µM; in series [1] (setting [11]) it was 0.009 µM; in series [1] (setting [6]), 0.009 µM.

In the case of `COc1ccc2c(c1)C[C@H](C)N(C(=O)CCl)[C@H]2c1ccc(C(=O)NC2CC2)cc1` [Compound 280], the values for the IC50 in series [2] (setting [7]) and in series [1] (setting [6]) were 0.38 µM and 0.21 µM, respectively.

Consider `CC1CN(c2ccc([C@@H]3c4[nH]c5ccccc5c4C[C@H](C)N3C(=O)CCl)cc2)CCO1` (stereo partly shown) [Compound 127], for which, in series [1] (setting [6]), the IC50 was above 10 µM.

For `C[C@H]1Cc2c([nH]c3ccccc23)C(c2ccc(N3CCOCC3)nc2)N1C(=O)CCl` (stereo partly shown) [Example 124], the IC50 in series [2] (setting [7]) is 0.201 µM.

Regarding `Cc1ccc(S(=O)(=O)OCC(=O)N2[C@@H](c3ccc(N4CCOCC4)cc3)c3[nH]c4ccccc4c3C[C@@H]2C)cc1` [Compound 223], in series [1] (setting [6]), the IC50 stood at 0.275 µM.

On to `C[C@H]1Cc2c([nH]c3ccccc23)[C@H](c2ccc(N3CCN(C)CC3)cc2)N1C(=O)OCl` [Compound 104], for which the results for the 50% inhibitory concentration (IC50) in series [3] and in series [1] (setting [6]) were 0.01 to 0.1 µM and 0.068 µM, respectively.

For `C[C@H]1Cc2c([nH]c3ccccc23)[C@@H](c2cnn(C3CCOCC3)c2)N1C(=O)CCl` [Compound 159], in series [1] (setting [6]), the IC50 was found to be 4.6 µM.

Consider `C#CC(=O)N1[C@@H](c2ccc(N3CCOCC3)cc2)c2[nH]c3ccccc3c2C[C@@H]1C` [Compound 231], for which the IC50 in series [1] (setting [6]) is 0.27 µM.

`CNC(=O)c1ccc([C@H]2c3[nH]c4ccccc4c3C[C@H](C(=O)OC)N2C(=O)CCl)cc1` [Compound 7]: the results for the “Whole Blood Stability % Remaining at 37° C. Human” value in series [4] (0 min), in series [4] (30 min) and in series [4] (60 min) were 100.0%, 60.1% and 44.5%, respectively. For the same compound, the concentration for half-maximal inhibition (IC50) in series [3] lay within 0.01 to 0.1 µM. Further, the figures for the “Whole Blood Stability % Remaining at 37° C. Mouse” value in series [5] (0 min), in series [5] (30 min) and in series [5] (60 min) were 100.0%, 68.2% and 48.6%, respectively.

Consider `CC(C)(C)OC(=O)[C@H]1Cc2c([nH]c3ccccc23)[C@H](c2ccc([N+](=O)[O-])cc2)N1C(=O)CCl` [Compound 11], for which the “Whole Blood Stability % Remaining at 37° C. Human” value in series [4] (0 min) was found to be 100.0%; in series [4] (30 min) it was 67.1%; in series [4] (60 min) it was 59.9%. The IC50 in series [3] lay in the range of 0.01 to 0.1 µM. Further, the “Whole Blood Stability % Remaining at 37° C. Mouse” value in series [5] (0 min) is recorded as 100.0%; in series [5] (30 min) it was 56.9%; in series [5] (60 min), 38.6%.

In the case of `C[C@H]1Cc2c([nH]c3ccccc23)[C@H](c2ccc(C3CCOCC3)cc2)N1C(=O)CCl` [Compound 112], the “Whole Blood Stability % Remaining at 37° C. Human” value in series [4] (0 min) worked out at 100.0%; in series [4] (30 min), 58.3%; in series [4] (60 min), 44.6%. Also, the IC50 in series [3] was below 0.01 µM. The “Whole Blood Stability % Remaining at 37° C. Mouse” value turned out to be 100.0% in series [5] (0 min), 68.7% in series [5] (30 min) and 69.3% in series [5] (60 min).
